In patent US20260271927A1, “PESTICIDALLY ACTIVE BICYCLIC COMPOUNDS” (SYNGENTA CROP PROTECTION AG, priority 2023, published 2026):

Key:
Type in all cases: in vivo
[1] = test system: Diabrotica balteata (Corn Root Worm); test: Diabrotica balteata (corn root worm), sprayed maize sprouts, L2 larvae; details: 96 h, application rate of 200 ppm, 4 days after infestation, read-out: control in at least one of the two categories (mortality or growth inhibition)
Description: Maize sprouts placed onto an agar layer in 24-well microtiter plates were treated with aqueous test solutions prepared from 10′000 ppm DMSO stock solutions by spraying. After drying, the plates were infested with L2 larvae (6 to 10 per well). The samples were assessed for mortality and growth inhibition in comparison to untreated samples 4 days after infestation.

[2] = test system: Tetranychus urticae (Two-Spotted Spider Mite); test: Tetranychus urticae feeding/contact activity, bean leaf discs; details: foliar, 192 h
Description: Bean leaf discs on agar in 24-well microtiter plates were sprayed with aqueous test solutions prepared from 10′000 ppm DMSO stock solutions. After drying the leaf discs were infested with a mite population of mixed ages. The samples were assessed for mortality on mixed population (mobile stages) 8 days after infestation.

[3] = test system: Spodoptera littoralis (Egyptian Cotton Leaf Worm); test: Spodoptera littoralis (Egyptian cotton leaf worm), cotton leaf discs, L1 larvae; details: foliar, 72 h, application rate of 200 ppm, 3 days after infestation, read-out: control in at least one of the three categories (mortality, anti-feedant effect, or growth inhibition)
Description: Cotton leaf discs were placed onto agar in 24-well microtiter plates and sprayed with aqueous test solutions prepared from 10′000 ppm DMSO stock solutions. After drying the leaf discs were infested with five L1 larvae. The samples were assessed for mortality, anti-feeding effect, and growth inhibition in comparison to untreated samples 3 days after infestation. Control of Spodoptera littoralis by a test sample is given when at least one of the categories mortality, anti-feedant effect, and growth inhibition is higher than the untreated sample.

[4] = test system: Myzus persicae (Green Peach Aphid); test: Myzus persicae feeding/contact activity, eggplant leaf discs; details: foliar, 144 h, application rate of 200 ppm, 6 days after infestation, read-out: growth inhibition
Description: Eggplant leaf discs were placed onto agar in a 24-well microtiter plate and sprayed with aqueous test solutions prepared from 10′000 ppm DMSO stock solutions. After drying, the leaf discs were infested with an aphid population of mixed ages. The samples were assessed for mortality 6 days after infestation.

[5] = test system: Myzus persicae (Green Peach Aphid); test: Myzus persicae systemic activity, roots of pea seedlings in test solution; details: 144 h, test rate of 24 ppm, 6 days after placing seedlings into test solutions
Description: Roots of pea seedlings infested with an aphid population of mixed ages were placed directly into aqueous test solutions prepared from 10′000 DMSO stock solutions. The samples were assessed for mortality 6 days after placing seedlings into test solutions.

[6] = test system: Chilo suppressalis (Striped Rice Stemborer); test: Chilo suppressalis (striped rice stemborer), artificial diet in 24-well plates, L2 larvae; details: 144 h, application rate of 200 ppm, 6 days after infestation, read-out: control in at least one of the three categories (mortality, anti-feedant effect, or growth inhibition)
Description: 24-well microtiter plates with artificial diet were treated with aqueous test solutions prepared from 10′000 ppm DMSO stock solutions by pipetting. After drying, the plates were infested with L2 larvae (6-8 per well). The samples were assessed for mortality, anti-feeding effect, and growth inhibition in comparison to untreated samples 6 days after infestation. Control of Chilo suppressalis by a test sample is given when at least one of the categories mortality, anti-feedant effect, and growth inhibition is higher than the untreated sample.

[7] = test system: Myzus persicae (Green Peach Aphid); test: Myzus persicae intrinsic activity, sucrose solution under Parafilm; details: 120 h, application rate of 12.5 ppm, 5 days after infestation, read-out: control (assessed for mortality)
Description: Test compounds prepared from 10′000 ppm DMSO stock solutions were applied by pipette into 24-well microtiter plates and mixed with sucrose solution. The plates were closed with a stretched Parafilm. A plastic stencil with 24 holes was placed onto the plate and infested pea seedlings were placed directly on the Parafilm. The infested plate was closed with a gel blotting paper and another plastic stencil and then turned upside down. The samples were assessed for mortality 5 days after infestation.

[8] = test system: Myzus persicae (Green Peach Aphid); test: Myzus persicae feeding/contact activity, sunflower leaf discs; details: foliar, 144 h, application rate of 200 ppm, 6 days after infestation
Description: Sunflower leaf discs were placed onto agar in a 24-well microtiter plate and sprayed with aqueous test solutions prepared from 10′000 ppm DMSO stock solutions. After drying, the leaf discs were infested with an aphid population of mixed ages. The samples were assessed for mortality 6 days after infestation.

[9] = test system: Bemisia tabaci (Cotton White Fly); test: Bemisia tabaci feeding/contact activity, cotton leaf discs, adult white flies; details: foliar, 144 h, application rate of 200 ppm, 6 days after incubation
Description: Cotton leaf discs were placed on agar in 24-well microtiter plates and sprayed with aqueous test solutions prepared from 10′000 ppm DMSO stock solutions. After drying the leaf discs were infested with adult white flies. The samples were checked for mortality 6 days after incubation.

[10] = test system: Plutella xylostella (Diamond Back Moth); test: Plutella xylostella (diamond back moth), artificial diet, eggs; details: 192 h, application rate of 200 ppm, 8 days after infestation, read-out: effect in at least one of the two categories (mortality or growth inhibition)
Description: 24-well microtiter plates with artificial diet were treated with aqueous test solutions prepared from 10′000 ppm DMSO stock solutions by pipetting. After drying, Plutella eggs were pipetted through a plastic stencil onto a gel blotting paper and the plate was closed with it. The samples were assessed for mortality and growth inhibition in comparison to untreated samples 8 days after infestation.

NC(=O)[C@H]1[C@@H]2CCCO[C@@H]21 (relative stereo) [Compound P1, rel-(1R,6R,7R)-2-oxabicyclo[4.1.0]heptane-7-carboxamide]
≥ 80%: percent control (mortality or growth inhibition) at 200 ppm [1] | mortality at 200 ppm [2]

O=C(Nc1cccn(-c2ccccc2)c1=O)[C@H]1[C@@H]2CCCO[C@@H]21 (relative stereo) [Compound P4, rel-(1S,6S,7S)-N-(2-oxo-1-phenyl-3-pyridyl)-2-oxabicyclo[4.1.0]heptane-7-carboxamide]
≥ 80%: percent control (mortality, anti-feedant effect or growth inhibition) at 200 ppm [3]

NC(=O)[C@H]1[C@@H]2OCCO[C@@H]21 [Compound P5, (1α,6α,7α)-2,5-dioxabicyclo[4.1.0]heptane-7-carboxamide]
≥ 80%: percent control (mortality or growth inhibition) at 200 ppm [1] | mortality at 200 ppm [4] | mortality at 24 ppm [5] | percent control (mortality, anti-feedant effect or growth inhibition) at 200 ppm [6] | mortality at 12.5 ppm [7] | mortality at 200 ppm [8]

CNC(=O)c1ccccc1NC(=O)[C@H]1[C@@H]2OCCO[C@@H]21 [Compound P6]
≥ 80%: mortality at 24 ppm [5] | mortality at 12.5 ppm [7]

O=C(O)[C@H]1[C@@H]2OCCO[C@@H]21 [Compound P7, (1α,6α,7α)-2,5-dioxabicyclo[4.1.0]heptane-7-carboxylic acid]
≥ 80%: mortality at 200 ppm [4] | mortality at 24 ppm [5] | percent control (mortality, anti-feedant effect or growth inhibition) at 200 ppm [6] | mortality at 12.5 ppm [7] | mortality at 200 ppm [9]

CCOC(=O)[C@H]1[C@@H]2OCCO[C@@H]21 [Compound P8, Ethyl(1α,6α,7α)-2,5-dioxabicyclo[4.1.0]heptane-7-carboxylate]
≥ 80%: percent control (mortality or growth inhibition) at 200 ppm [1] | mortality at 200 ppm [4] | percent effect (mortality or growth inhibition) at 200 ppm [10] | mortality at 24 ppm [5] | percent control (mortality, anti-feedant effect or growth inhibition) at 200 ppm [6] | mortality at 12.5 ppm [7] | mortality at 200 ppm [9]

O=C(NOCc1ccccc1)[C@H]1[C@@H]2OCCO[C@@H]21 [Compound P13, (1α,6α,7α)-N-benzyloxy-2,5-dioxabicyclo[4.1.0]heptane-7-carboxamide]
≥ 80%: mortality at 200 ppm [4] | mortality at 24 ppm [5] | mortality at 200 ppm [9]

CCONC(=O)[C@H]1[C@@H]2OCCO[C@@H]21 [Compound P15, (1α,6α,7α)-N-ethoxy-2,5-dioxabicyclo[4.1.0]heptane-7-carboxamide]
≥ 80%: mortality at 200 ppm [4] | percent effect (mortality or growth inhibition) at 200 ppm [10] | mortality at 24 ppm [5] | percent control (mortality, anti-feedant effect or growth inhibition) at 200 ppm [6] | mortality at 12.5 ppm [7]

O=C(NCC1CC1)[C@H]1[C@@H]2OCCO[C@@H]21 [Compound P28, (1α,6α,7α)-N-(cyclopropylmethyl)-2,5-dioxabicyclo[4.1.0]heptane-7-carboxamide]
≥ 80%: percent control (mortality, anti-feedant effect or growth inhibition) at 200 ppm [3]

O=C(NOC1CCC1)[C@H]1[C@@H]2OCCO[C@@H]21 [Compound P31, (1α,6α,7α)-N-(cyclobutoxy)-2,5-dioxabicyclo[4.1.0]heptane-7-carboxamide]
≥ 80%: percent control (mortality or growth inhibition) at 200 ppm [1] | mortality at 200 ppm [4] | mortality at 24 ppm [5] | percent control (mortality, anti-feedant effect or growth inhibition) at 200 ppm [6]
